Where “and” joins values, the source holds several entries; their conditions need not be identical. Equal entries are not always repeated.
Test system: 324938-238-R-J1-PDC complex spheroid viability
Assay: Anticancer human tumor 324938-238-R-J1-PDC patient-derived bladder carcinoma cell line growth inhibition
Conditions: for viability, T/C: stronger effect = lower value
From the text: Multicellular complex tumor spheroid response to LSD1 Inhibitor Iadademstat in combination with a variety of drugs and investigational agents in selected tumor cell lines
The current study was undertaken to assess response to LSD1 inhibitors in combination with standard-of-care drugs and investigational agents in solid tumor complex spheroid models as well as in the K-562 leukemia. Complex spheroids include a stromal component modeled by human endothelial cells (HUVEC) and fibroblasts modeled by human mesenchymal stem cells (MSCs). The concentration ranges selected for each drug and investigational agent were based upon clinically achievable concentrations if the clinical Cmax of the agent was known.
Compounds. The drugs and investigational agents used in this study are listed on Table 1. All of the agents used, including staurosporine (NSC755774) and gemcitabine (NSC613327), were obtained from the Developmental Therapeutics Program, NCI. FDA-approved anticancer drugs are available from the NCI at http://dtp.nci.nih.gov/branches/dscb/oncology_drugset_explanation.html. Drugs and investigational agents were >95% pure by proton nuclear magnetic resonance (NMR) and liquid chromatography/mass spectrometry (LC/MS). Stock solutions were prepared at 400x in DMSO, stored at -70 degrees C, and diluted in fresh medium prior to their use. The final concentration of DMSO in cell culture wells never exceeded 0.25% (v/v). The FDA-approved anticancer drug set is available from the Developmental Therapeutics Program at https://dtp.cancer.gov/organization/dscb/obtaining/available_plates.htm. All drugs and investigational agents were tested over a range starting from a high concentration at or near the clinical Cmax and decreasing in half-log increments. If the clinical Cmax for an agent had not been determined, the highest concentration tested was 10 microM.
Cell Lines. The patient-derived cancer cell (PDC) lines: 292921-168-R-J2-PDC, K24384-001-R-PDC, and 521955-158-R2-J5-PDC pancreatic carcinomas, 556581-035-R-J1 ovarian carcinoma, 324938-238-R-J1-PDC, 855422-203-R-J1-PDC and 883617-216-R-J1-PDC urothelial bladder carcinomas, 743489-274-T-PDC renal cell carcinoma, 138582-R-J1 Merkel cell tumor, K60290-347-R-J1 and K57222-313-R-J1-PDC glioblastomas, 653999-131-R-J2-PDC, LG0703-F948-PDC, and 349418-098-R-PDC non-small cell lung carcinomas, 885512-296-R-J2-PDC, 171881-019-R-J1-PDC breast carcinomas and 186277-243-T-J2-PDC and 233499-124-R-J2-PDC colon carcinomas were obtained from the NCI Patient-Derived Models Repository (PDMR, https://pdmr.cancer.gov). The established cell lines NCI/ADR-RES (RRID:CVCL_14520 and OVCAR-5 (RRID:CVCL_1628) ovarian carcinomas, 786-O (RRID:CVCL_1051) and A498 (RRID:CVCL_A498) renal cell carcinoma, NCI-H211 (ATCC, cat. CRL-5824; RRID:CVCL_1529), NCI-H196 (ATCC, cat. CRL-5823, RRID:CVCL_1509), SW 1271 (ATCC, cat. CRL-2177, RRID:CVCL_1716) and NCI-H1876 (ATCC, cat. CRL-5902, RRID:CVCL_1503) small cell lung carcinomas, MDA-MB-231 (RRID:CVCL_0062) and MDA-MB-468 (RRID:CVCL_0419)breast carcinomas (10-12). Pooled donor human umbilical vein endothelial cells (HUVEC, Lonza, cat. CC-2519) and human mesenchymal stem cells (hMSC, Lonza, cat. PT-2501) were purchased from Lonza (Walkersville, MD).
Cell Culture. All cells were maintained in an incubator at 37 degrees C and 5% CO2 with 95% humidity. The PDC lines were cultured according to standard operating procedures established by the NCI PDMR (https://pdmr.cancer.gov). Briefly all PDCs were thawed and cultured in Matrigel-coated flasks prepared with a working solution of 1X Ham's F-12 nutrient mix, without supplementation (Invitrogen, Waltham, MA, cat. 11765054), 100 U/mL penicillin-streptomycin (Invitrogen, cat. 15140122), and 2.5% Matrigel (Corning Inc., Corning, NY, cat. 354248) for the first three passages. […]

[1] = curve of first compound, second compound 0.1 µM
[2] = curve of first compound, second compound 0.316 µM
[3] = curve of first compound, second compound 1 µM
[4] = curve of first compound, second compound 3.16 µM
[5] = curve of first compound, second compound 10 µM
[6] = second compound 0.1 µM, first compound 0.00316 µM
[7] = second compound 0.1 µM, first compound 0.01 µM
[8] = second compound 0.1 µM, first compound 0.0316 µM
[9] = second compound 0.1 µM, first compound 0.1 µM
[10] = second compound 0.316 µM, first compound 0.00316 µM
[11] = second compound 0.316 µM, first compound 0.01 µM
[12] = second compound 0.316 µM, first compound 0.0316 µM
[13] = second compound 0.316 µM, first compound 0.1 µM
[14] = second compound 1 µM, first compound 0.00316 µM
[15] = second compound 1 µM, first compound 0.01 µM
[16] = second compound 1 µM, first compound 0.0316 µM
[17] = second compound 1 µM, first compound 0.1 µM
[18] = second compound 3.16 µM, first compound 0.00316 µM
[19] = second compound 3.16 µM, first compound 0.01 µM
[20] = second compound 3.16 µM, first compound 0.0316 µM
[21] = second compound 3.16 µM, first compound 0.1 µM
[22] = second compound 10 µM, first compound 0.00316 µM
[23] = second compound 10 µM, first compound 0.01 µM
[24] = second compound 10 µM, first compound 0.0316 µM
[25] = second compound 10 µM, first compound 0.1 µM
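Note: spheroids also contain HUVEC and human MSCs and agents combined with iadademstat; spheroids exposed to agents for 7 days before readout.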

In the case of `Nc1ncn(C2CC(O)C(CO)S2)c(=O)n1` (configuration not stated) + NC1CCC(NC2CC2c2ccccc2)CC1, the IC50 [1] is reported as 26.6 nM, the IC50 [2] is reported as 19.9 nM and the IC50 [3] is reported as 22.8 nM. The IC50 [4] was 13.1 nM, the IC50 [5] was 16.3 nM and the viability, T/C (second compound 0.1 µM, first compound 0.000949 µM) was 71.9%. The viability, T/C (second compound 0.1 µM, first compound 0.003 µM) was 73.7%, the viability, T/C (second compound 0.1 µM, first compound 0.00949 µM) was 62.8% and the viability, T/C (second compound 0.1 µM, first compound 0.03 µM) was 47.2%. For the same compound, the viability, T/C (second compound 0.1 µM, first compound 0.0949 µM) was 34.2%, the viability, T/C (second compound 0.1 µM, first compound 0.3 µM) was 22.8% and the viability, T/C (second compound 0.316 µM, first compound 0.000949 µM) was 74.1%. For the same compound, the viability, T/C (second compound 0.316 µM, first compound 0.003 µM) was 71.8%, the viability, T/C (second compound 0.316 µM, first compound 0.00949 µM) was 60.1% and the viability, T/C (second compound 0.316 µM, first compound 0.03 µM) was 43.9%. The viability, T/C (second compound 0.316 µM, first compound 0.0949 µM) was 30.6%, the viability, T/C (second compound 0.316 µM, first compound 0.3 µM) was 22.9% and the viability, T/C (second compound 1 µM, first compound 0.000949 µM) was 77.1%. The viability, T/C (second compound 1 µM, first compound 0.003 µM) was 64.8%, the viability, T/C (second compound 1 µM, first compound 0.00949 µM) was 58.3% and the viability, T/C (second compound 1 µM, first compound 0.03 µM) was 49.3%. It also gave a viability, T/C (second compound 1 µM, first compound 0.0949 µM) of 35.6%, a viability, T/C (second compound 1 µM, first compound 0.3 µM) of 23.8% and a viability, T/C (second compound 3.16 µM, first compound 0.000949 µM) of 70.6%. For the same compound, the viability, T/C (second compound 3.16 µM, first compound 0.003 µM) was 62.1%, the viability, T/C (second compound 3.16 µM, first compound 0.00949 µM) was 55.3% and the viability, T/C (second compound 3.16 µM, first compound 0.03 µM) was 39.2%. For the same compound, the viability, T/C (second compound 3.16 µM, first compound 0.0949 µM) was 32.7%, the viability, T/C (second compound 3.16 µM, first compound 0.3 µM) was 22.2% and the viability, T/C (second compound 10 µM, first compound 0.000949 µM) was 65.9%. It also gave a viability, T/C (second compound 10 µM, first compound 0.003 µM) of 64.3%, a viability, T/C (second compound 10 µM, first compound 0.00949 µM) of 51.3% and a viability, T/C (second compound 10 µM, first compound 0.03 µM) of 48.1%. The viability, T/C (second compound 10 µM, first compound 0.0949 µM) was 29.7% and the viability, T/C (second compound 10 µM, first compound 0.3 µM) was 22.3%.
With `COc1cc(Nc2ncc3c(n2)-c2ccc(Cl)cc2C(c2c(F)cccc2OC)=NC3)ccc1C(=O)O` the viability, T/C (compound 0.00316 µM) was 91.2% and 90.6%, the viability, T/C (compound 0.01 µM) was 76.9% and 59% and the viability, T/C (compound 0.0316 µM) was 35.7% and 26.8%. The viability, T/C (compound 0.1 µM) was 19.6% and 15.6%, the viability, T/C (compound 0.316 µM) was 18.6% and 13.9% and the viability, T/C (compound 1 µM) was 15.3% and 14.3%. The IC50 (curve of compound) was 21.2 nM and 13.8 nM.
For `CC(C)CC(NC(=O)CNC(=O)c1cc(Cl)ccc1Cl)B1OC(=O)CC(CC(=O)O)(C(=O)O)O1` (configuration not stated) + NC1CCC(NC2CC2c2ccccc2)CC1, the IC50 [1] was 2.3 nM, the IC50 [2] was 1.97 nM and the IC50 [3] was 1.98 nM. For the same compound, the IC50 [4] was 1.72 nM, the IC50 [5] was 1.75 nM and the viability, T/C (second compound 0.1 µM, first compound 0.000316 µM) was 78.5%. For the same compound, the viability, T/C (second compound 0.1 µM, first compound 0.001 µM) was 76.7%, the viability, T/C [6] was 39.9% and the viability, T/C [7] was 5.51%. The viability, T/C [8] was 0.09%, the viability, T/C [9] was 0.14% and the viability, T/C (second compound 0.316 µM, first compound 0.000316 µM) was 88.5%. It also gave a viability, T/C (second compound 0.316 µM, first compound 0.001 µM) of 68.9%, a viability, T/C [10] of 37.8% and a viability, T/C [11] of 6.24%. For the same compound, the viability, T/C [12] was 0.11%, the viability, T/C [13] was 0.14% and the viability, T/C (second compound 1 µM, first compound 0.000316 µM) was 87.1%. It also gave a viability, T/C (second compound 1 µM, first compound 0.001 µM) of 62.5%, a viability, T/C [14] of 44.2% and a viability, T/C [15] of 5.29%. The viability, T/C [16] was 0.06%, the viability, T/C [17] was 0.13% and the viability, T/C (second compound 3.16 µM, first compound 0.000316 µM) was 80.2%. For the same compound, the viability, T/C (second compound 3.16 µM, first compound 0.001 µM) was 65.2%, the viability, T/C [18] was 33% and the viability, T/C [19] was 3.57%. It also gave a viability, T/C [20] of 0.05%, a viability, T/C [21] of 0.16% and a viability, T/C (second compound 10 µM, first compound 0.000316 µM) of 78.3%. For the same compound, the viability, T/C (second compound 10 µM, first compound 0.001 µM) was 76.2%, the viability, T/C [22] was 22.7% and the viability, T/C [23] was 2.57%. It also gave a viability, T/C [24] of 0.13% and a viability, T/C [25] of 0.21%.
`CC1COCCN1c1cc(-c2ccnn2C)c2ccnc(-c3ccn[nH]3)c2n1` (configuration not stated) + NC1CC1c1ccc(-c2cccc(O)c2)cc1 showed an IC50 [1] of 22.9 nM, an IC50 [2] of 17.6 nM and an IC50 [3] of 12.9 nM. It also gave an IC50 [4] of 15.8 nM, an IC50 [5] of 12.9 nM and a viability, T/C [6] of 90.1%. For the same compound, the viability, T/C [7] was 73.6%, the viability, T/C [8] was 40.5% and the viability, T/C [9] was 20.6%. The viability, T/C (second compound 0.1 µM, first compound 0.316 µM) was 14.1%, the viability, T/C (second compound 0.1 µM, first compound 1 µM) was 12.1% and the viability, T/C [10] was 74%. For the same compound, the viability, T/C [11] was 61.5%, the viability, T/C [12] was 38.1% and the viability, T/C [13] was 20.6%. It also gave a viability, T/C (second compound 0.316 µM, first compound 0.316 µM) of 13.3%, a viability, T/C (second compound 0.316 µM, first compound 1 µM) of 11.6% and a viability, T/C [14] of 66.7%. The viability, T/C [15] was 54.7%, the viability, T/C [16] was 35% and the viability, T/C [17] was 21.5%. The viability, T/C (second compound 1 µM, first compound 0.316 µM) was 14.3%, the viability, T/C (second compound 1 µM, first compound 1 µM) was 10.8% and the viability, T/C [18] was 73.9%. The viability, T/C [19] was 57%, the viability, T/C [20] was 39.3% and the viability, T/C [21] was 22.1%. It also gave a viability, T/C (second compound 3.16 µM, first compound 0.316 µM) of 14.5%, a viability, T/C (second compound 3.16 µM, first compound 1 µM) of 12% and a viability, T/C [22] of 69.6%. For the same compound, the viability, T/C [23] was 54.1%, the viability, T/C [24] was 36.4% and the viability, T/C [25] was 24.2%. For the same compound, the viability, T/C (second compound 10 µM, first compound 0.316 µM) was 17.9% and the viability, T/C (second compound 10 µM, first compound 1 µM) was 13.7%.
